In patent US20260151379A1, “SALT TYPE AND CRYSTAL FORM OF COMPLEMENT FACTOR B INHIBITOR, AND PREPARATION METHOD THEREFOR AND APPLICATION THEREOF” (SHANGHAI MEIYUE BIOTECH DEVELOPMENT CO., LTD., priority 2022, published 2026):
Where two headings read alike, the source gives them in different places.

How the values were obtained:
[1] = Liver microsomal stability experiment (monkey); format: in vitro ADME, cynomolgus monkey; conditions: monkey liver microsomes
Method: A 0.1 M solution of dipotassium phosphate in distilled water (containing 1 mM ethylenediaminetetraacetic acid) was taken. Then the pH was adjusted to 7.4 with a 0.1 M solution of potassium dihydrogen phosphate in distilled water (containing 1 mM ethylenediaminetetraacetic acid).
• Rat: SD Rat Liver Microsomes, Cat. No.: LM-DS-02M, RILD Research Institute for Liver Diseases (Shanghai) Co. Ltd. • Monkey: Cynomolgus Monkey Liver Microsomes, Cat. No.: LM-SXH-02M, RILD Research Institute for Liver Diseases (Shanghai) Co. Ltd. • Human: Pooled Human Liver Microsomes (Mongolian), Cat. No.: LM-R-02M, RILD Research Institute for Liver Diseases (Shanghai) Co. Ltd.
A 10 mM solution of each of the control compound and test compounds was prepared in DMSO. Then 10 μL of the solution was added to 190 μL of acetonitrile to form a 0.5 mM stock solution. 1.5 μL of the 0.5 mM stock solution was measured out, and […] of 20 mg/mL liver microsomes and 479.75 μL of the buffer were added. (The actual preparation amount can be adjusted according to use).
10 mg/mL of reduced coenzyme II (NADPH) was prepared in the buffer. A 96-well plate was placed on ice. Wells corresponding to different time points (0, 10, 30, 60 and 90 min, Non-NADPH) were set for each compound. […] The mixture was analyzed on an AB SCIEX ExionLC-Triple Quad 5500 high-performance liquid chromatograph-mass spectrometer. […]

[2] = Stability tests of compound of formula I and its monohydrochloride, phosphate and maleate (Example 4); format: physicochemical
Method: The stability of the compound of formula I, the monohydrochloride of the compound of formula I in Example 1, the phosphate of the compound of formula I in Example 2, and the maleate of the compound of formula I in Example 3 were investigated.
Stability investigation conditions: 40° C./75% RH-closed, 40° C./75% RH-open, and 60° C.-closed; stability investigation content: changes in related substances and crystal forms.
Detection of related substances: about 6-7 mg of a sample was separately weighed out and added to a 10 mL volumetric flask; 50% aqueous acetonitrile solution was added for dissolution; the mixture was diluted to volume; and 10 μL of the sample was injected.

[3] = target: Complement factor B (Homo sapiens, UniProt P00751); experiment: Optical surface plasmon resonance (SPR) binding capacity assay
Method: An SPR experiment was carried out at 25° C. In the experiment, a PBS buffer supplemented with 0.05% (v/v) P20 and 5% DMSO was used as a running buffer, and the analytical instrument Biacore 8K of GE Healthcare was used. A CM7 chip (GE Healthcare) was activated with 400 mM EDC and 100 mM NHS at a flow rate of 30 μL/min for 420 s. […] Then the assay chip was treated with 1 M ethanolamine hydrochloride at a flow rate of 10 μL/min for 300 s for chip blocking. The concentration of the test compound was 500 μM, the binding time was 120 s, and the dissociation time was 300 s. Data analysis was performed using a 1:1 binding model (Biacore Insight Evaluation Software, Version 2.0.15.12933).

[4] = Solubility tests in water, SGF, FaSSIF, FeSSIF at 37° C. (Example 5); format: physicochemical; conditions: for solubility at 1 h / solubility at 24 h: 37 °C, thermodynamic from solid; for solubility at 1 h: read-out: Solubility (mg/mL) (1 h); for solubility at 24 h: read-out: Solubility (mg/mL) (24 h)
Method: Experimental procedures: 30 mg (in water) or 15 mg of a sample was weighed out and added to a 4 mL vial; 3 mL of a medium to be tested (water, SGF, FaSSIF, or FeSSIF) was added; the mixture was continuously stirred at 37° C.; 0.5 mL of the sample was separately collected at 1 h and 24 h; centrifugation was performed at 12000 rpm for 10 min; the supernatant was diluted with 50% aqueous acetonitrile solution to an appropriate multiple; and the concentration of the supernatant was determined.
Control and linearity: 10 mg of the compound of formula I was weighed out and added to a 50 mL volumetric flask, 50% aqueous acetonitrile solution was added for dissolution, and the mixture was diluted to volume. Two parts were prepared in parallel. The control of the compound of formula I was taken and diluted with 50% aqueous acetonitrile solution to 100 μg/mL, 50 μg/mL, and 10 μg/mL, 5 μL of the sample was injected, and a standard curve was plotted.

[5] = PK of single intragastric administration to cynomolgus monkeys (plasma concentration); format: in vivo; conditions: intragastric 3 mpk and 30 mpk, same dose as control compound
Method: Cynomolgus monkeys were used. Each group consisted of 3 cynomolgus monkeys, and they were given the control compound at 3 mpk, the control compound at 30 mpk, the compound of formula I at 3 mpk, and the compound of formula I at 30 mpk by intragastric administration. Blood was collected at different time points and used for drug concentration analysis and complement activity detection. The compound concentration in plasma was determined by LC-MS/MS. The complement activity in serum was determined using a wieslab assay (Svar Life Science AB, COMPL AP330 RUO) kit, Normal Human Serum (Complement Technology, NHS).

[6] = SGF, simulated gastric fluid, SGF

Sequence of Complement factor B (P00751 26-764): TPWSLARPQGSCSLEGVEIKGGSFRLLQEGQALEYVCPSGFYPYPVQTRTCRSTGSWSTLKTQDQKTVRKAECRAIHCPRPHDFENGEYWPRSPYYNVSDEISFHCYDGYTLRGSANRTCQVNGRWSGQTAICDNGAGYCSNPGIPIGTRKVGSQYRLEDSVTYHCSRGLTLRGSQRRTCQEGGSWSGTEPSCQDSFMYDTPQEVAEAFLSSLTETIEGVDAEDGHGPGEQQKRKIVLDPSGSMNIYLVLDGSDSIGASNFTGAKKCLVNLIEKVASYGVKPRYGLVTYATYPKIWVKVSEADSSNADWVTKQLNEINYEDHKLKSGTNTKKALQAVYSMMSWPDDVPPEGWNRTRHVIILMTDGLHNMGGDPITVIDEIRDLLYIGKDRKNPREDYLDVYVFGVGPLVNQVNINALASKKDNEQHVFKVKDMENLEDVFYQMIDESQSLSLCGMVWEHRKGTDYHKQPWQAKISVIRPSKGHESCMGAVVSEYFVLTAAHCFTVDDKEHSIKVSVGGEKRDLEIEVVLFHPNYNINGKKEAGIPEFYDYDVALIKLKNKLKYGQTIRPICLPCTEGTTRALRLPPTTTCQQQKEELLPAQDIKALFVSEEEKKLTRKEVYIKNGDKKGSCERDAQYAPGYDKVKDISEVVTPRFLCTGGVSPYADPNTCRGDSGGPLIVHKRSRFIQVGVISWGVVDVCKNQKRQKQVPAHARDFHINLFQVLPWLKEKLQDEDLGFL

In the case of COc1cc(C)c2[nH]ccc2c1CN1CC[C@H](OCC2CC2)C[C@H]1c1ccc(C(=O)O)cc1 [Compound of formula I], the “MMS (monkey) Remaining (T = 90 min)” value [1] is reported as 93.32%, the “Stability (conclusion in words from Table 7)” value ([2]; 40° C./75% RH closed/open and 60° C. closed, 2 wks, listed as compound of formula I) is reported as “stable” and the “Maximum single impurity %” value ([2]; 40° C./75% RH-closed-2 wks) is reported as 0.16%. For the same compound, the Purity % ([2]; 40° C./75% RH-closed-2 wks) was 99.23%, the Total impurity % ([2]; 40° C./75% RH-closed-2 wks) was 0.77% and the “Maximum single impurity %” value ([2]; 40° C./75% RH-open-2 wks) was 0.17%. The Purity % ([2]; 40° C./75% RH-open-2 wks) was 99.24%, the Total impurity % ([2]; 40° C./75% RH-open-2 wks) was 0.76% and the “Maximum single impurity %” value ([2]; 60° C.-closed-2 wks) was 0.33%. For the same compound, the Purity % ([2]; 60° C.-closed-2 wks) was 98.95%, the Total impurity % ([2]; 60° C.-closed-2 wks) was 1.05% and the “Maximum single impurity %” value ([2]; Initial) was 0.10%. The Purity % ([2]; Initial) was 99.28%, the Total impurity % ([2]; Initial) was 0.72% and the “Rmax (RU)” value ([3]; test compound 500 μM, 25° C., 1:1 binding model) was 274.2 RU. For the same compound, the “Binding capacity to the target protein (in words)” value ([3]; versus control compound) was “significantly superior to that of the control compound”, the “Final pH” value ([4]; FaSSIF) was 6.44 and the “Solubility (mg/mL) (1 h)” value ([4]; FaSSIF) was 0.22 mg/mL. For the same compound, the “Solubility (mg/mL) (24 h)” value ([4]; FaSSIF) was 0.19 mg/mL, the solubility at 1 h ([4]; FeSSIF, fessif, FeSSIF) was 0.37 mg/mL and the solubility at 24 h ([4]; FeSSIF, fessif, FeSSIF) was 0.35 mg/mL. The “Final pH” value ([4]; FessIF) was 5.03, the “Final pH” value ([4]; SGF) was 1.74 and the solubility at 1 h [4, 6] was 5.51 mg/mL. For the same compound, the solubility at 24 h [4, 6] was 5.48 mg/mL, the “Final pH” value ([4]; Water) was 8.73 and the “Solubility (mg/mL) (1 h)” value ([4]; Water) was 0.37 mg/mL. For the same compound, the “Solubility (mg/mL) (24 h)” value ([4]; Water) was 0.31 mg/mL and the “Mean plasma concentration (in words, FIG. 21)” value [5] was “significantly higher mean plasma concentration than that of the control compound”.
